Test systems include SN12C renal; HT29 colon; ACHN renal; NCI-H226 lung; CAKI-1 renal; A549 NSCLC; SNB-75 CNS; A498 renal; K-562 leukemia; HCC-2998 colon; SR leukemia; SNB-19 CNS; SK-MEL-2 melanoma; NCI-H23 lung; OVCAR-8 ovarian; CCRF-CEM leukemia.
Assay in all cases: NCI-60 cell line screen, 48 h

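Method: 48-hour compound exposure of cells in 96-well plates, five concentrations, linear interpolation of endpoints. TGI marks complete inhibition of growth.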

In the case of `COC(=O)c1c/c(=N\NC(=O)CC(=O)Nc2ccccc2OC)c2ccccc2o1`, the TGI with SN12C renal, with HT29 colon, in the test on ACHN renal, in the test on NCI-H226 lung, with CAKI-1 renal and in the test with A549 NSCLC was above 100 µM throughout. Also, the TGI in the test with SNB-75 CNS, with A498 renal, in the test with K-562 leukemia, in the test with HCC-2998 colon, in the test with SR leukemia and in the test with SNB-19 CNS was above 100 µM in each case. Besides, the TGI with SK-MEL-2 melanoma and in the test on NCI-H23 lung was above 100 µM each time.
With `C/C(CC(=O)Nc1cc(Cl)c(Cl)cc1Cl)=N\NC(N)=O`, the TGI in the test on HT29 colon, with OVCAR-8 ovarian, in the test on NCI-H226 lung, in the test with A549 NSCLC, in the test with CCRF-CEM leukemia and in the test on SNB-75 CNS was above 100 µM in each case. Also, the TGI in the test with K-562 leukemia, with HCC-2998 colon, in the test with SK-MEL-2 melanoma and with NCI-H23 lung was above 100 µM in each case.
On to `C/C(CC(=O)Nc1ccc(C)cc1C)=N/N=C(N)N`, for which the TGI in the test on HT29 colon, in the test on OVCAR-8 ovarian, in the test with ACHN renal, in the test on NCI-H226 lung, in the test with A549 NSCLC and in the test on CCRF-CEM leukemia was above 100 µM throughout. In addition, the TGI in the test on SNB-75 CNS, in the test with A498 renal, in the test with K-562 leukemia, in the test with HCC-2998 colon, in the test with SK-MEL-2 melanoma and with NCI-H23 lung was above 100 µM each time.
In the case of `CSC(C1c2ccccc2N(c2ccc(C)cc2)C2=NC(=O)N(C)C(=O)C21Cl)S(=O)(=O)c1ccc(C)cc1` (stereo unspecified), the TGI with SN12C renal was 58.5 µM; in the test on HT29 colon, 57 µM; in the test with OVCAR-8 ovarian, above 100 µM; in the test with ACHN renal, above 100 µM; with NCI-H226 lung, 48.7 µM; in the test on CAKI-1 renal, 43.2 µM. In addition, the TGI in the test on A549 NSCLC was above 100 µM; in the test with CCRF-CEM leukemia, 38 µM; in the test with SNB-75 CNS, 60 µM; in the test on A498 renal, 92.7 µM; in the test with K-562 leukemia, 53.9 µM; in the test with HCC-2998 colon, 36.6 µM. Further, the results for the TGI in the test with SNB-19 CNS, in the test with SK-MEL-2 melanoma and in the test on NCI-H23 lung were 85.2 µM, 38.9 µM and 46.9 µM, respectively.
For `CC(C)(C)C1C=C(Sc2ccccc2)C(=O)O1` (stereo unspecified), the TGI in the test on SN12C renal, in the test on HT29 colon, in the test on OVCAR-8 ovarian, in the test on ACHN renal, in the test on NCI-H226 lung and in the test with CAKI-1 renal was above 100 µM each time. Further, the TGI in the test on A549 NSCLC is above 100 µM; with CCRF-CEM leukemia it was above 100 µM; in the test on SNB-75 CNS, 83.8 µM; in the test with A498 renal, above 100 µM; in the test with K-562 leukemia it was above 100 µM; with HCC-2998 colon, above 100 µM. Further, the TGI with SNB-19 CNS, in the test with SK-MEL-2 melanoma and in the test with NCI-H23 lung was above 100 µM each time.
With `N#Cc1cc([N+](=O)[O-])ccc1NC(=O)C(=O)Nc1n[nH]c(N)n1`, the TGI in the test on SN12C renal, in the test with HT29 colon, with OVCAR-8 ovarian, in the test with ACHN renal, with NCI-H226 lung and in the test on CAKI-1 renal was above 100 µM each time. The TGI with A549 NSCLC, with CCRF-CEM leukemia, in the test on SNB-75 CNS, in the test on A498 renal, with K-562 leukemia and in the test on HCC-2998 colon was above 100 µM each time. Besides, the TGI with SNB-19 CNS, in the test with SK-MEL-2 melanoma and in the test with NCI-H23 lung was above 100 µM each time.
Regarding `CC(C)C(=O)NC(=S)Nc1ccc([N+](=O)[O-])cc1C#N`, the TGI in the test with SN12C renal, with HT29 colon, with OVCAR-8 ovarian, in the test with ACHN renal, in the test with NCI-H226 lung and in the test with CAKI-1 renal was above 100 µM in each case. Further, the TGI in the test with A549 NSCLC, in the test on CCRF-CEM leukemia, in the test with SNB-75 CNS, in the test on A498 renal, in the test on K-562 leukemia and with HCC-2998 colon was above 100 µM throughout. Besides, the TGI in the test with SR leukemia, with SNB-19 CNS, in the test with SK-MEL-2 melanoma and in the test on NCI-H23 lung was above 100 µM each time.
`CCOC(=O)C1=C(OC(OCC)C(CC)[Se]c2ccccc2)CCCC1` (stereo unspecified): the TGI is 34.1 µM in the test on SN12C renal; 62 µM in the test on HT29 colon; 42.1 µM in the test on OVCAR-8 ovarian; 82.2 µM in the test with ACHN renal; 61.3 µM in the test on NCI-H226 lung; above 100 µM in the test on CAKI-1 renal. Further, the TGI is above 100 µM in the test on A549 NSCLC; 38.7 µM in the test on CCRF-CEM leukemia; 54.8 µM with SNB-75 CNS; above 100 µM in the test on A498 renal; above 100 µM with K-562 leukemia; above 100 µM in the test with HCC-2998 colon. For the same compound, the TGI is above 100 µM in the test on SNB-19 CNS, 43 µM in the test on SK-MEL-2 melanoma and 25.5 µM in the test with NCI-H23 lung.
Take `COC(=O)/C=C/c1cc(OC)c(OC)c(OC)c1`: the TGI with SN12C renal, with HT29 colon, in the test with OVCAR-8 ovarian, in the test on ACHN renal, in the test with NCI-H226 lung and in the test on CAKI-1 renal was above 100 µM throughout. The TGI in the test with A549 NSCLC, in the test with CCRF-CEM leukemia, with SNB-75 CNS, in the test with HCC-2998 colon, with SR leukemia and with SNB-19 CNS was above 100 µM throughout. The TGI in the test on SK-MEL-2 melanoma and in the test on NCI-H23 lung was above 100 µM throughout.
On to `CCCCN=C(NC#N)NCCCC`, for which the TGI in the test with SN12C renal, in the test with HT29 colon, in the test on OVCAR-8 ovarian, with ACHN renal, with NCI-H226 lung and with CAKI-1 renal was above 100 µM each time. In addition, the TGI in the test on A549 NSCLC, with SNB-75 CNS, in the test with A498 renal, with K-562 leukemia, in the test with HCC-2998 colon and in the test on SR leukemia was above 100 µM in each case. Besides, the TGI with SNB-19 CNS, in the test on SK-MEL-2 melanoma and in the test with NCI-H23 lung was above 100 µM in each case.
